In patent US10363251B2, “(+)-morphinans as antagonists of toll-like receptor 9 and therapeutic uses thereof” (Mallinckrodt LLC, priority 2009, dated 2019):

Assays:
Type in all cases: cell-based
TLR2 = target: T1, TLR2 (Homo sapiens, UniProt O60603); experiment: TLR2 antagonist screening, NF-κB-inducible SEAP reporter in HEK293 cells; details: for Average % Inhibition at TLR2: 10 μM, stimulated with HKLM at 10^8 cell/ml
T1 construct: expressed in transfected cells; host or cells: HEK293
Method: (§1) Stimulation of TLRs 2, 3, 4, 5, 7, 8, and 9 was determined by assessing activation of the transcription factor NF-κB in HEK293 cells that were engineered to express the corresponding receptors. Assessment of TLR stimulation was based on the use of an NF-κB-inducible secreted alkaline phosphatase (SEAP) reporter system in which the SEAP reporter was under the control of a promoter inducible by NF-κB. Thus, the degree of activation of TLRs can be indirectly quantified spectrophotometrically by measuring the amount of the SEAP reporter that is produced.
(§2) The appropriate TLR-expressing cells were plated in Growth Medium in a 96-well plate (25,000-50,000 cells/well). The cells were stimulated with the appropriate positive control ligand or no ligand was added (negative control). The positive control ligands were: HKLM was used to stimulate TLR2; poly(I:C) was used to stimulate TLR3; LPS was used to stimulate TLR4; Flagellin was used to stimulate TLR5; CL097 was used to stimulate TLR7; CL075 was used to stimulate TLR8; CpG oligodeoxynucleotide (ODN) 2006 was used to stimulate TLR9. To test whether (+)-morphinans could block that activation of the TLR, the cells were pretreated with an antagonist for 30 minutes prior to addition of the positive control ligand. For this, 20 μL of the stock test compound solution (100 μM in H2O) was added to give a total volume of 200 μL. […] After a 16-20 hr incubation period at 37° C. in a CO2 incubator, 20 μL of the cell culture supernatant was added to 180 μL of QUANTI-Blue™ Media (InvivoGen, San Diego, Calif.), and the resulting solutions were incubated at 37° C. for an additional 1-3 hours according to the manufacturer's instructions. The OD's of the samples were then read at 650 nm on a Beckman Coulter AD 340C Absorbance Detector.

TLR3 = target: T2, TLR3 (Homo sapiens, UniProt O15455); experiment: TLR3 antagonist screening, NF-κB-inducible SEAP reporter in HEK293 cells; details: for Average % Inhibition at TLR3: 10 μM, stimulated with poly(I:C) at 1 μg/ml
T2 construct: expressed in transfected cells; host or cells: HEK293
T2 sequence (O15455 24-904, species assumed): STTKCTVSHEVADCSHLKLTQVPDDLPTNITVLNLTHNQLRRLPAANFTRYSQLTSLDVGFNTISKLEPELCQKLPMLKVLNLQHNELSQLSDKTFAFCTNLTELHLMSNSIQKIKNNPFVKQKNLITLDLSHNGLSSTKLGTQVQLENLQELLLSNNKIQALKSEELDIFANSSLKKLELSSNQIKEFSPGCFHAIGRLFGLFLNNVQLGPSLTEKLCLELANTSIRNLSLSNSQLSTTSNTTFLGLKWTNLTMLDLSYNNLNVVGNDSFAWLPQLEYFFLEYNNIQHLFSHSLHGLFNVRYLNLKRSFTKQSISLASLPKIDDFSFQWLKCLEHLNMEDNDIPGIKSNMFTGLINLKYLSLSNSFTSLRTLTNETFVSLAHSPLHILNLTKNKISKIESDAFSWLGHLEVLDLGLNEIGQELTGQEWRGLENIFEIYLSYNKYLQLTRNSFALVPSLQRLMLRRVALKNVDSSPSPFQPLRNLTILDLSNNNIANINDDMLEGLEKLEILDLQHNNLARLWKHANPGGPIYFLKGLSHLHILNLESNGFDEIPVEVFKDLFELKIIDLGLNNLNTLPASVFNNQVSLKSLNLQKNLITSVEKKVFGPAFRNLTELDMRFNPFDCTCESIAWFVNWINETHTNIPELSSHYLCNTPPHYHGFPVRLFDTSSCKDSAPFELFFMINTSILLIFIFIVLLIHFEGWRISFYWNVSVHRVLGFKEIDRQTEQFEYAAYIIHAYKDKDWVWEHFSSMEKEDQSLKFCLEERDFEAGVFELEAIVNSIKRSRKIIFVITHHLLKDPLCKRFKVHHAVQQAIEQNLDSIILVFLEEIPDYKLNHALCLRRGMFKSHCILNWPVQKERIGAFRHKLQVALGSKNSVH
Method: as §1, §2

TLR4 = target: T3, TLR4 (Homo sapiens, UniProt O00206); experiment: TLR4 antagonist screening, NF-κB-inducible SEAP reporter in HEK293 cells; details: for Average % Inhibition at TLR4: 10 μM, stimulated with LPS at 100 ng/ml
T3 construct: expressed in transfected cells; host or cells: HEK293
T3 sequence (O00206 24-839, species assumed): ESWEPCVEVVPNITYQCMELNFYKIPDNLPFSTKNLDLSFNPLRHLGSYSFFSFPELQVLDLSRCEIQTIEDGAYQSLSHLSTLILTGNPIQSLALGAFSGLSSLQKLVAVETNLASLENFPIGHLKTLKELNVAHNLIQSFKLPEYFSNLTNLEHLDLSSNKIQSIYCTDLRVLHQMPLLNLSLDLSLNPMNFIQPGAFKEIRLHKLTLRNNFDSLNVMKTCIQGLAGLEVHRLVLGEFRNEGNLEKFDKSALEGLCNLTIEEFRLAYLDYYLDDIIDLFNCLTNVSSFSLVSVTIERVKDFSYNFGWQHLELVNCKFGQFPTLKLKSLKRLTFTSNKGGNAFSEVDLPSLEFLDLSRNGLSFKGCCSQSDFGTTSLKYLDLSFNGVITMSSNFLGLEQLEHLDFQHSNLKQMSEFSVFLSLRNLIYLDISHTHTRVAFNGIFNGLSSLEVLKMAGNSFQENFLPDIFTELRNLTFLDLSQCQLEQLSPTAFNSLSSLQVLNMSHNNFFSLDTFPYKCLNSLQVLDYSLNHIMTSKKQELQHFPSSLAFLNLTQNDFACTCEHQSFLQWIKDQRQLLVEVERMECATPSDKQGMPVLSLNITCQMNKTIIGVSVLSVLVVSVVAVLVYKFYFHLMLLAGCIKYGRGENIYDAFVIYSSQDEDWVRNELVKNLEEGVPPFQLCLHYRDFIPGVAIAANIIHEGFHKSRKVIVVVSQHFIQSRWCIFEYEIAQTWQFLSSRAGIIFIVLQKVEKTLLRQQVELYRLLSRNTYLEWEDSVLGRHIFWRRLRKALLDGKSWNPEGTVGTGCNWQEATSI
T3 sequence (Q9Y6Y9 17-160 partner limits assumed, species assumed): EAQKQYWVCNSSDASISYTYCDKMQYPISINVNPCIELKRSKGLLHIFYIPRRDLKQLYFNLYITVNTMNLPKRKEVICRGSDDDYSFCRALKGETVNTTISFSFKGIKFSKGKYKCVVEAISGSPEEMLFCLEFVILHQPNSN
Method: as §1, §2

TLR9 = target: T4, TLR9 (Homo sapiens, UniProt Q9NR96); experiment: TLR9 antagonist screening, NF-κB-inducible SEAP reporter in HEK293 cells; details: for Average % Inhibition at TLR9: 10 μM, stimulated with CpG ODN 2006 at 100 ng/ml
T4 construct: expressed in transfected cells; host or cells: HEK293
T4 sequence (Q9NR96 26-1032): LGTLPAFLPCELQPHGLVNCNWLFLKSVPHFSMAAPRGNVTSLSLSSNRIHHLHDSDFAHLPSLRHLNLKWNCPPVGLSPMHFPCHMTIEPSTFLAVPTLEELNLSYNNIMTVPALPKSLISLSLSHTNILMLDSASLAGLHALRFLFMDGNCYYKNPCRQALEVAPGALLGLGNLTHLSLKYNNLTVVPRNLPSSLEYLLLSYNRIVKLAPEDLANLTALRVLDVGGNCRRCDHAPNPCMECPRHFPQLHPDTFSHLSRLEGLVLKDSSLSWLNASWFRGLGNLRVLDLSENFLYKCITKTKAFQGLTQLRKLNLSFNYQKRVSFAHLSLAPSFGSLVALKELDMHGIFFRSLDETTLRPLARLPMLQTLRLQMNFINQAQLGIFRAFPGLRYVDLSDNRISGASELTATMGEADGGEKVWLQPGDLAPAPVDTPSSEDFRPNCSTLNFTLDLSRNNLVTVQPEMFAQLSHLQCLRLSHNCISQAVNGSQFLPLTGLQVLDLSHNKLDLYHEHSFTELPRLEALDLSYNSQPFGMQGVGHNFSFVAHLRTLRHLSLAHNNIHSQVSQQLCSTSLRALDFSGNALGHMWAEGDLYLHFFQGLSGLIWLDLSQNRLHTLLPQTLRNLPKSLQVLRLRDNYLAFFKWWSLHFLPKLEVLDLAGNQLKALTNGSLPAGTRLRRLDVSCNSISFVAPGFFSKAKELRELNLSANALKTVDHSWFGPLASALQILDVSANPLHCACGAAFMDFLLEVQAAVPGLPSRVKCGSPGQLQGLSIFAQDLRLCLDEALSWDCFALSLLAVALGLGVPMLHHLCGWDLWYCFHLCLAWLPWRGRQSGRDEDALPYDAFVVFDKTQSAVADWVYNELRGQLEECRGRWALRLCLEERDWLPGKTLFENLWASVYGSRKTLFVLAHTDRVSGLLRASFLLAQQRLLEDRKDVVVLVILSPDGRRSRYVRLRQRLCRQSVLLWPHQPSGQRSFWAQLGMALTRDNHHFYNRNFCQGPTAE
Method: as §1, §2

T1 sequence (O60603 21-784, species assumed): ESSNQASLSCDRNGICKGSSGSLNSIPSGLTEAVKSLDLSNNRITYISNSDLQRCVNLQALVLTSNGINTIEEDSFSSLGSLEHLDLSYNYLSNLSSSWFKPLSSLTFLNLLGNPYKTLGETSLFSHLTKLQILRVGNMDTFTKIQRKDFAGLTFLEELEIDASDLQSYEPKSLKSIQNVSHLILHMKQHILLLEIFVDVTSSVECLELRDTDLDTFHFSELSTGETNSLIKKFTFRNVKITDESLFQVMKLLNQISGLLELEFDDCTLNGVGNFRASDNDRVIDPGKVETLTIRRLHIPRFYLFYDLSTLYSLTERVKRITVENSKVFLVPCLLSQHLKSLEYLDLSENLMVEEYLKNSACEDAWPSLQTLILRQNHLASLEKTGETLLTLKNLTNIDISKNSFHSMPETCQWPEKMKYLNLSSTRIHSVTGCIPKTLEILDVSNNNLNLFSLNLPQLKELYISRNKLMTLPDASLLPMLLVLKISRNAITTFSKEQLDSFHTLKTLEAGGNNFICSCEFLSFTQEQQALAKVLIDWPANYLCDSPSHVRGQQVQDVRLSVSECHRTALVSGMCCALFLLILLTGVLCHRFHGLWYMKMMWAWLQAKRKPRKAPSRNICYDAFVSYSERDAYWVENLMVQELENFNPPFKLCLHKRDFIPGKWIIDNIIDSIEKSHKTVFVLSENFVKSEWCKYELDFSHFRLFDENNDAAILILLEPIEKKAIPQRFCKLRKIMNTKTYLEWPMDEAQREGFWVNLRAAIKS

SMILES	Average % Inhibition at TLR2 (TLR2)	Average % Inhibition at TLR3 (TLR3)	Average % Inhibition at TLR4 (TLR4)	Average % Inhibition at TLR9 (TLR9)	inhibition at 10 µM (TLR2; HEK293, stimulated with HKLM at 10^8 cell/ml)	inhibition at 10 µM (TLR3; HEK293, stimulated with poly(I:C) at 1 μg/ml)	inhibition at 10 µM (TLR4; HEK293, stimulated with LPS at 100 ng/ml)	inhibition at 10 µM (TLR9; HEK293, stimulated with CpG ODN 2006 at 100 ng/ml)
C=CCN1CC[C@]23c4c5ccc(O)c4O[C@H]2C(=O)CC[C@]3(O)[C@H]1C5 [(+)-Naloxone, (+)-naloxone]	24%	27%	25%	45%	–	–	–	–
COc1ccc2c(c1O)[C@@]13CCN(C)[C@@H](C2)[C@H]1CC(OC)C(=O)C3 (stereo partly drawn) [Dihydrosinomenine, dihydrosinomenine]	27%	40%	23%	42%	–	–	–	–
COC1=C[C@@H]2[C@@H]3Cc4ccc(OC)c(O)c4[C@]2(CCN3C)CC1=O [Sinomenine, sinomenine]	–	–	–	–	30%	28%	24%	55%
